Measured values: patent publication US11130762B2, “Azaaryl derivative, preparation method therefor, and application thereof for use in pharmacy” (Abbisko Therapeutics Co., Ltd., priority 2017, dated 2021)
Where two headings read alike, the source gives them in different places.

Experiments:
PDGFRA kinase = PDGFRA kinase (Homo sapiens, UniProt P16234); experiment: PDGFRA in vitro biochemical kinase study (Caliper EZ Reader); details: Caliper mobility shift; read-out: Enzymatic experiment PDGFRA IC50
Description: B. KIT/PDGFRA In Vitro Biochemical Kinase Study
1. Preparation of 1-Fold Kinase Buffer and Stop Solution
1.2 stop solution: 100 mM HEPES, pH 7.5, 0.015% Brij-35, 0.2% Coating Reagent #3, 50 mM EDTA
2. Preparation of Compound Solution
2.1 Dilution of Compound Solution
1) The final concentration of the compound solution was 40 μM, and the concentration of the prepared stock solution was 50 times of the final concentration, i.e., 2 mM.
2) 80 μL of 100% DMSO was added to the second well of the 96-well plate, then 20 μL of 10 mM compound solution was added, and thereby 2 mM compound solution was prepared, 60 μL of 100% DMSO was added to other wells, 20 μL of compound was taken from the second well, added to the third well and diluted by 4 times. This serial 4-time dilution was conducted in sequence for the total of 10 concentrations.
2.2 5-Fold Compound Solution Transferred to a Reaction Plate
1) 10 μL of solution was taken from each well of the above 96-well plate and added to another 96-well plate, and 90 μL of kinase buffer was added.
2) 5 μL of solution was taken from the above 96-well plate and added to a 384-well reaction plate.
1) KIT/PDGFRA kinase was added to the 1-fold kinase buffer solution to obtain a 2.5-fold kinase solution.
2) FAM-labeled polypeptide and ATP were added to the 1-fold kinase buffer solution to obtain a 2.5-fold substrate solution.
3) 10 μL of 2.5-fold kinase solution was added to the 384-well reaction plate, which already contained 5 μL of 5-fold compound in 10% DMSO. And the mixed solution was incubated at room temperature for 10 min.
4) 10 μL of 2.5-fold substrate solution was added to the 384-well reaction plate.
5) Kinase reaction and termination: the mixed solution was incubated at 28° C. for a certain period of time, and 25 μL of stop solution was added to stop the reaction.
2.4 Data Reading of Caliper EZ Reader II
2.5 Calculation of Percent Inhibition and IC50
1) Percent conversion data were copied from the Caliper EZ Reader. […]

[1] = system: M-07e human cytomegalic leukemia cells; experiment: Cell proliferation (Cell Titer Glo), M-07e cells with SCF (KIT); type: cell-based; details: 72 h, 3 days, CTG, * = average of multiple tests, read-out: Cytological experiment KIT IC50
Description: D. CSF-1R-Related Cell Proliferation Experiment
Functional effects of compounds on the proliferation of several cell lines were evaluated by Cell Titer Glo (CTG) studies in the present invention, and effects of the compounds on the proliferation of different cells were evaluated to determine the selectivity degree of the compounds. In the experiment, M-07e human cytomegalic leukemia cells (cat. No. CBP60791) from Nanjing Kebai Biotechnology Co., Ltd. were cultured in an incubator under conditions of RPMI1640 (Gibco, cat. No. 11875-119), 20% fetal bovine serum (Gibco, 10099-141), human 10 ng/mL GM-CSF granulocyte macrophage colony-stimulating factors (R&D, cat. No. 215-GM-010), 37° C., and 5% CO2; and Kasumi-1 human acute myeloblastic leukemia cells (cat. No. CBP60524) were cultured in an incubator under conditions of RPMI1640 (Gibco, cat. No. 11875-119), 20% fetal bovine serum (Gibco, 10099-141), 37° C., and 5% CO2: NCI-H1703 human non-small cell lung squamous carcinoma cells (cat. No. CBP60115) were cultured in an incubator under conditions of RPMI1640 (Gibco, cat. No. 11875-119), 10% fetal bovine serum (Gibco, 10099-141), 37° C., and 5% CO2; MV-4-11 human acute monocytic leukemia cells (cat. No. CBP60522) were cultured in an incubator under conditions of IMDM (Invitrogen, cat. No. 12440053), 20% fetal bovine serum (Gibco, 10099-141), 37° C., and 5% CO2. Since ATP is an index for viable cell metabolism, CTG (Promega, #G7573) reagent is a homogeneous detection method for detecting the number of viable cells in the culture by quantifying ATP. Therefore, compound-mediated inhibition for cell proliferation/survival was evaluated by quantifying ATP content in cells, and the specific experimental process was as follows.
I) M-07e Human Cytomegalic Leukemia Cell:
1. The cells were plated into a tissue-culture-medium-treated 96-well plate (Costar #3904) with 3500 cells/well/80 μL fresh culture medium, and cultured for 24 hrs;
2. the next day, 10 μL of culture medium containing testing compound with 10-fold of final concentration was added to each well:
3. 10 μL of culture medium containing SCF recombinant human stem cell factor (R&D, cat. No. 7466-SC-010) with 10-fold of the final concentration was then added to each well;
4. the dosage effect was evaluated by testing 4-fold serial dilutions of the compound, which started from 18 μM;
(§1) 5. after the cells were incubated for 3 days at 37° C. and 5% CO2, the inhibition on cell survival was quantified after 50 μL of CTG was added and the luminescence assay was performed;
(§2) 6. the compound concentration leading to half maximal inhibitory (IC50) and the compound concentration leading to absolute half maximal inhibitory (Absolute IC50) were measured by a plate reader (M1000, Tecan) and a four-parameter curve fit in Graphpad Prism 7.

[2] = system: M-NFS-60 mouse myeloid leukemia lymphocytes; experiment: CSF-1R-related cell proliferation experiment (Cell Titer Glo), M-NFS-60 cells with M-CSF; type: cell-based; details: Lymphocyte, 72 h, 3 days, CTG, * = average of multiple tests
Description: C. CSF-1R-Related Cell Proliferation Experiment
Functional effects of compounds on cell proliferation were evaluated by using Cell Titer Glo (CTG) study in the present invention. M-NFS-60 mouse myeloid leukemia lymphocytes (cat. No. CCBJ078) from National Institutes For Food and Drug Control were cultured in the incubator under conditions of RPMI 1640 (Gibco, cat. No. 11875-119), 10% fetal bovine serum (Gibco, 10099-141), human 10 ng/mL M-CSF macrophage colony-stimulating factor (R&D, cat. No. MVN0915101), 37° C., and 5% CO2. Since ATP is an index for viable cell metabolism, CTG (Promega, #G7573) reagent is a homogeneous detection method for detecting the number of viable cells in the culture by quantifying ATP. Therefore, compound-mediated inhibition for cell proliferation/survival was evaluated by quantifying ATP content in cells, and the specific experimental process was as follows:
1. The cells were plated into a tissue-culture-medium-treated 96-well plate (Costar #3904) with 5,000 cells/well/80 μL fresh culture medium;
2. 24 hours later, 10 μL culture medium containing testing compound with 10-fold of final concentration was added to each well;
3. 10 μL of culture medium containing M-CSF with 10-fold of the final concentration was then added to each well;
4. dosage effect was evaluated by testing the 3-fold serial dilutions of the compound;
as §1, §2

[3] = read-out: Cytological experiment CSF1R IC50
[4] = absolute half maximal inhibition, read-out: Cytological experiment CSF-1R Absolute IC50

PDGFRA kinase, sequence (P16234 24-1089): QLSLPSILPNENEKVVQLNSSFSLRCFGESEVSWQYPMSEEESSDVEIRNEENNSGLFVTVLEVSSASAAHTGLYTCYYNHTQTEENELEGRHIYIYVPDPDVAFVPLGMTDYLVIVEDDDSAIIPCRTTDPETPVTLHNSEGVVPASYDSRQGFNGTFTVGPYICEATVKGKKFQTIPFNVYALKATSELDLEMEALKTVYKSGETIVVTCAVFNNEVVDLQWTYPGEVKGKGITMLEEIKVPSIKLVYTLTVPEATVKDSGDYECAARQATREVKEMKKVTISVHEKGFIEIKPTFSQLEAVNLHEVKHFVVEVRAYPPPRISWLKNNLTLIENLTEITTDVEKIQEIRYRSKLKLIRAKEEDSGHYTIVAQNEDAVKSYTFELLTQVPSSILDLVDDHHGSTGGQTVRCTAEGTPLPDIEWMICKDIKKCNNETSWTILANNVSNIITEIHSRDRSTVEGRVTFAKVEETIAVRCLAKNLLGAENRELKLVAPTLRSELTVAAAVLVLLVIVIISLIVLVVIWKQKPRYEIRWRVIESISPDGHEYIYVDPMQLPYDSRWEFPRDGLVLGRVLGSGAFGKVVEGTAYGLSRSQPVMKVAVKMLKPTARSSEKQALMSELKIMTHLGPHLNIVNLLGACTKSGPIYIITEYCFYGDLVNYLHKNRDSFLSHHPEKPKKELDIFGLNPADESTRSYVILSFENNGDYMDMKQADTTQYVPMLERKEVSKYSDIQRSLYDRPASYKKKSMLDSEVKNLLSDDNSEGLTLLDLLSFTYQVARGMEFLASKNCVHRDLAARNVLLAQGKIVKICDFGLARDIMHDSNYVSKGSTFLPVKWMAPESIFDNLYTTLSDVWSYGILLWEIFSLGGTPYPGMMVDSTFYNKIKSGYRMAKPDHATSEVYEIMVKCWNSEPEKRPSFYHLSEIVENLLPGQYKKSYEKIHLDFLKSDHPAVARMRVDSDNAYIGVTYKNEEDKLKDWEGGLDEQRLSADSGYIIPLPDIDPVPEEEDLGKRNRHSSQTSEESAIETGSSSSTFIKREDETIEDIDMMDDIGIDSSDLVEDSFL

| IC50 (PDGFRA kinase) [nM] | IC50 [1] [nM] | IC50 [2, 3] [nM] | IC50 [2, 4] [nM] | SMILES |
| --- | --- | --- | --- | --- |
| 757 | 436 | 38 | 20.2 | CCN1CCCn2c1ncc(-c1ccc(Oc3ccnc(-c4cnn(C)c4)c3)c(C)n1)c2=O [Example 4] |
| 9310 | > 2000 | 101 | 95.6 | Cc1nc(-c2cnc3n(c2=O)CCCN3C)ccc1Oc1ccnc(-c2cnn(C)c2)c1 [Example 1, 9-methyl-3-(6-methyl-5-((2-(1-methyl-1H-pyrazol-4-yl)pyridin-4-yl)oxy)pyridin-2-yl)-6,7,8,9-tetrahydro-4H-pyrimido[1,2-a]pyrimidin-4-one] |
